Key:
[1] = target: T1, HRas^G12V (Homo sapiens (Human), UniProt P01112, G12V); experiment: 19F DLB (ligand-observed 19F NMR) score; type: binding; set-up: scale not given here
In short: (§1)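 In the T2-CPMG experiment, echo spacing was 1 ms and total delays ranged over eight values from 1 to 800 ms. Both scores come from 600 MHz NMR of 50 μM HRas G12V mixed with fragment pools at 240 μM each, in phosphate buffer pH 7.4 with NaCl, MgCl2 and TCEP-d16. Ligand-observed 19F spectra were recorded with 1H decoupling, 64 scans and a 5 s relaxation delay.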

[2] = target: T1, HRas^G12V; experiment: Overall binding/activity in the various assays (NMR consensus binding)
Description: Since the fragment library was curated using phosphate buffer, 25 mM sodium phosphate pH 7.4, 150 mM NaCl, 5 mM MgCl2, 1 mM TCEP-d16, 10% D2O Fresh TCEP was used for experiments. Screening was performed using ^1H-decoupled 1D ^19F experiment Bruker experiment (zgfhigqn.2) with 64 scans and a relaxation delay of 5 seconds. 50 μM HRas^G12V and 240 μM of each fragment in pools (mixtures) were used.
Hit confirmation was performed using the same ^19F experiment as the screen. Ligand-observed 1D ^1H, protein-observed 1D ^1H, ^1H T2-CPMG as well as Saturation Transfer Difference (STD) experiments were also run on the same samples. Ligand-observed 1D ^1H was run using the standard Bruker sequence with excitation sculpting (zgesgp) with a relaxation delay of 10 seconds and 16 scans per spectrum. Protein-observed 1D ^1H was performed using the same sequence with a relaxation delay of 1 second and 256 scans in order to increase the signal-to-noise of the protein resonances, while keeping the experimental time relatively short. The ^1H T2-CPMG experiment employed a modified version of the Bruker 1D ^1H zgesgp experiment with the addition of a CPMG pulse train after the first 90° excitation pulse. Total duration for each spin echo was fixed at 1 ms (τ=500 μs), while the number of echoes in the pulse train was varied according to the total time (T). The number of scans for each spectrum was 4 and eight delay times were run on each sample, ranging from 1 ms to 800 ms.
STD experiments consisted of two independent spectra with offsets of 0 ppm (on resonance) and −20 ppm (off resonance). […] 160 scans were acquired for each spectrum.
The results obtained with the compounds in the various assays described above are depicted in Table 21.
Because of its power to probe the intrinsically weak interactions (Kd) between targets and low-molecular weight fragments, NMR fragment-based lead discovery (FBLD) is a very useful biophysical method in early stage drug discovery, especially for challenging target proteins; including those with shallow binding pockets. Since FBLD screens are performed using low-molecular weight compounds (fragments) with lower structural complexity, the same chemical space can be covered using a smaller number of drug-like fragments versus use of large libraries of higher-molecular weight lead-like compounds as in high throughput screening (HTS) campaigns. Therefore, FBLD has a much higher hit rate than HTS using only several hundred to several thousand compounds in comparison with approximately 1 million compounds for HTS. Also, the small size of the compounds screened in FBLD means a better chance to fully match the interactions with small or transient pockets within the target protein, where these less tractable pockets cannot be accessed with standard classical HTS methods. […] We expect this methodology to be more advantageous than classical HTS methods for expediting the time from hit to lead (H2L) and allows for rapid access to high quality leads with lower attrition rates in subsequent lead optimization (LO) campaigns toward pre-clinical candidate selection. FBLD screening by NMR involves a “consensus binding” approach where several distinct NMR experiments (DLB, STD, CPMG) are applied along with a free-state aggregation detection method (T2-CPMG) to rank the compounds for their affinity to the receptor (HRAS in this case) whilst simultaneously monitoring the solution behavior and critical quality attributes of each compound. The latter helps to eliminate artifact binders which are highly problematic. We performed a fluorine screen involving 461 compounds that were derived from a highly curated fragment library. Moreover, two-dimensional ^15N HSQC NMR was also used to validate ligand-binding sites on the target protein. In addition, we employed protein-detected biophysical measurements were employed to determine fragment binding affinities to the target protein (Kd) by HSQC NMR. […]

[3] = target: T1, HRas^G12V; experiment: 19F T2-CPMG NMR score; type: binding
In short: as §1

T1 sequence (P01112 1-166 G12V): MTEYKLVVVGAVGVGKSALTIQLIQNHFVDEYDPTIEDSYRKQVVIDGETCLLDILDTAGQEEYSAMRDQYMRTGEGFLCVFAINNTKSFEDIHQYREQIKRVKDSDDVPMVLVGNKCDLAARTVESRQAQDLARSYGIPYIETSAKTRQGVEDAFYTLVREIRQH

SMILES	19F DLB Score [1]	Binding to HRas^G12V (in words) [2]	19F T2-CPMG Score [3]
CC(=O)N1CCC[C@@H]1C(=O)NCCc1c[nH]c2cc(F)ccc12 [Compound 10044]	1.07	low or no binding	0.95
CC(=O)N1CCC[C@H]1C(=O)NCCc1c[nH]c2cc(F)ccc12 [Compound 10045]	1.1	low or no binding	1.13
O=S(=O)(NCCc1c[nH]c2cc(F)ccc12)c1ccc(F)cc1 [Compound 10046]	1.02	low or no binding	0.79
Fc1ccc2c(CCNCCc3c[nH]c4cc(F)ccc34)c[nH]c2c1 [Compound 10047, Bis(2-(6-fluoro-1H-indol-3-yl)ethyl)amine]	1.19	low or no binding	3.38
CC(C)(C(=O)N1CCC1)c1c[nH]c2cc(F)ccc12 [Compound 10049, 1-(azetidin-1-yl)-2-(6-fluoro-1H-indol-3-yl)-2-methylpropan-1-one]	1.43	low or no binding	3.53
O=C(NCCc1c[nH]c2cc(F)ccc12)C1CCOC1 (stereo not drawn) [Compound 10063]	1.1	low or no binding	2.82
CCN(CC)CC(=O)NCCc1c[nH]c2cc(F)ccc12 [Compound 10064]	1.16	low or no binding	1.74
O=C(Cc1c[nH]c2ccccc12)Nc1ccc(F)cc1 [Compound 10067]	1.2	low or no binding	2.15
O=C(Cc1c[nH]c2cc(F)ccc12)N[C@H]1CCOC1 [Compound 10070]	1.46	low or no binding	5.56
O=C(Cc1c[nH]c2cc(F)ccc12)N[C@@H]1CCOC1 [Compound 10071]	1.35	low or no binding	4.49
Cc1[nH]c2cc(F)ccc2c1CC(=O)N1CCC1 [Compound 10077, 1-(azetidin-1-yl)-2-(6-fluoro-2-methyl-1H-indol-3-yl)ethan-1-one]	0.96	low or no binding	0.41
CS(=O)(=O)NCCC(=O)NCCc1c[nH]c2cc(F)ccc12 [Compound 10082, N-(2-(6-fluoro-1H-indol-3-yl)ethyl)-3-(methylsulfonamido)propanamide]	1.22	low or no binding	2.61
O=C(O)C1CCN1C(=O)Cc1c[nH]c2cc(F)ccc12 (stereo not drawn) [Compound 10102, 1-(2-(6-fluoro-1H-indol-3-yl)acetyl) azetidine-2-carboxylic acid]	1.06	low or no binding	2.65
O=C(O)CN1CCC(NC(=O)Cc2c[nH]c3cc(F)ccc23)CC1 [Compound 10108, 2-(4-(2-(6-fluoro-1H-indol-3-yl)acetamido)piperidin-1-yl)acetic acid]	1.34	low or no binding	5.72

Other lines, results leading:

19F DLB Score [1]	Binding to HRas^G12V (in words) [2]	19F T2-CPMG Score [3]	SMILES
1.22	low or no binding	2.95	CCOC(=O)CNC(=O)Cc1c[nH]c2cc(F)ccc12 [Compound 10050]
1.07	low or no binding	1.59	CC(C)(CNC(=O)Cc1c[nH]c2cc(F)ccc12)C(=O)O [Compound 10062]
1.17	low or no binding	2.3	CC(=O)N1CCC[C@H](NC(=O)Cc2c[nH]c3cc(F)ccc23)C1 [Compound 10073, (S)—N-(1-acetylpiperidin-3-yl)-2-(6-fluoro-1H-indol-3-yl)acetamide]
1.23	low or no binding	3.48	CC(=O)N1CCC[C@@H](NC(=O)Cc2c[nH]c3cc(F)ccc23)C1 [Compound 10074]
1.23	low or no binding	2.25	CCOC(=O)[C@@H](NC(=O)Cc1c[nH]c2cc(F)ccc12)C(C)C [Compound 10079, Ethyl (2-(6-fluoro-1H-indol-3-yl)acetyl)valinate]
2.67	low or no binding	−1.66	COCC(=O)Nc1cccc(NC(=O)Cc2c[nH]c3cc(F)ccc23)c1 [Compound 10080, 2-(6-fluoro-1H-indol-3-yl)-N-(3-(2-methoxyacetamido)phenyl)acetamide]
1.14	low or no binding	2.8	C[C@@H](NC(=O)Cc1c[nH]c2cc(F)ccc12)C(=O)O [Compound 10083]
1.09	low or no binding	1.7	C[C@H](NC(=O)Cc1c[nH]c2cc(F)ccc12)C(=O)O [Compound 10084]
1.46	low or no binding	7.82	CC(=O)N1CC[C@@H](NC(=O)Cc2c[nH]c3cc(F)ccc23)C1 [Compound 10092, (R)—N-(1-acetylpyrrolidin-3-yl)-2-(6-fluoro-1H-indol-3-yl) acetamide]
1.35	low or no binding	4.89	CCOC(=O)C(CC(C)C)NC(=O)Cc1c[nH]c2cc(F)ccc12 (stereo not drawn) [Compound 10093]
1.14	low or no binding	2.11	CCOC(=O)C(Cc1ccccc1)NC(=O)Cc1c[nH]c2cc(F)ccc12 (stereo not drawn) [Compound 10096]
1.38	low or no binding	5.94	CCOC(=O)C(Cc1ccc(O)cc1)NC(=O)Cc1c[nH]c2cc(F)ccc12 (stereo not drawn) [Compound 10098]
1.12	low or no binding	1.74	CCOC(=O)C(CC(N)=O)NC(=O)Cc1c[nH]c2cc(F)ccc12 (stereo not drawn) [Compound 10101]
1.14	low or no binding	2.49	CCOC(=O)C(Cc1c[nH]cn1)NC(=O)Cc1c[nH]c2cc(F)ccc12 (stereo not drawn) [Compound 10104]
1.2	low or no binding	2.44	CCOC(=O)C(CO)NC(=O)Cc1c[nH]c2cc(F)ccc12 (stereo not drawn) [Compound 10105]
1.29	low or no binding	2.55	O=C(O)C1CN(C(=O)Cc2c[nH]c3cc(F)ccc23)C1 [Compound 10113, 1-(2-(6-fluoro-1H-indol-3-yl)acetyl) azetidine-3-carboxylic acid]

Reference: US20240408064A1, “RAS INHIBITORS, COMPOSITIONS AND METHODS OF USE THEREOF” (GENETOLEAD INC., priority 2021, published 2024)
